# Reference: patent US5756505A, “N-acylpiperazine derivative, antibacterial drug and anti-ulcer drug” (Shiseido Co., Ltd., priority 1995, dated 1998)
# What was measured:
# gastric mucosa = assay: PD: Gastric Mucosal Integrity Test; assay type: in vivo, rat (male Crj:SD); settings: rat, 100 mg/kg into ex vivo chamber, 60 minutes
# Method: PD: Gastric Mucosal Integrity Test
# In this case, since the sample compound has a necrotizing effect, it is inappropriate as an anti-ulcer medicament.
# Therefore, the gastric mucosal potential difference (PD), which reflects the integrity of the gastric mucosa, is measured so as to confirm that the sample compound has no damasing effect on gastric mucosa, which is toxicity at gastric mucosal level.
# Male Crj:SD rats (7 to 8-week-old) was fasted overnight, but allowed free access to water, and then, under urethane anesthesia (1.25 g/kg, i.p.), fixed to a cork board on its back. The abdomen of each rat was incised, and a small incision was made in the forestomach. Then, the inside of the stomach was washed with physiological saline heated at 37° C. From the forestomach, along the greater curvature thereof, the stomach was incised without damaging blood vessels. After the height of the cork board was adjusted on a jack, the stomach was mounted on ex vivo chamber. The area of the gastric mucosa exposed to the inside of this chamber was 2.5 cm^2. The inside of the chamber was perfused with physiological saline warmed at 37° C. by micro tube pump. By using an agar bridge containing 3M KCl, the potential difference between the chamber and the abdominal cavity was measured by a PD meter. Here, the rectal temperature was measured to control the body temperature during the experiment. After the PD was sufficiently stabilized, the perfusate was stopped and then 100 mg/10 ml/kg of the sample compound dissolved or suspended in an aqueous solution of 0.5% sodium carboxymethyl cellulose or 0.05% Tween 80 were administered into the chamber, while PD was recorded for 60 minutes. To a control, the vehicle was administered.
# The change in PD during 60 minutes after the administration of 100 mg/kg of the sample compound was collectively studied and, with reference to the positive control, classified into 5 levels as follows:
# 5: Same as the control with no recognizable damage at all.
# 3: Though a weak decrease in PD and a possibility of a weak mucosal damage is recognized, there is no substantial problem.
# 2: Medium degree of decrease in PD is found and a mucosal damage is recognized.
# 1: Heavy degree of decrease in PD is found and a remarkable mucosal damage is recognized.
# [1] = MTT: Cell Damaging and Protecting Effect Test; assay type: cell-based, rabbit (male Japanese White); settings: rabbit, gastric mucosal cells, final concentration 10^-4 M, 4 hours; smaller value is better; read-out: MTT: cell damaging rate
# Description: MTT: Cell Damaging and Protecting Effect Test
# It is confirmed that there is no toxicity in cell level. Those having a toxicity in cell level are inappropriate as an anti-ulcer drug.
# A male Japanese White rabbit (2.5 to 3 kg) was anesthetized to death by Nembutal™ and, immediately thereafter, its stomach was removed. The greater curvature of the stomach was incised so as to remove the stomach contents therefrom. After the mucosal surface was washed with HBSS (Hanks' Balanced Salt Solution), the stomach in ice-cooled HBSS was transferred to a laboratory. Then, after the pyloric antrum was removed, the gastric corpus mucosa was separated by a spatula and then minced into 2 to 3 mm^3 pieces in BME (Basal Medium Eagle). Thereafter, these pieces were shaken at 120 to 130 cycles/minute for 15 minutes at 37° C. in BME 60ml containig 280 U/ml of dispase and 30 to 50 U/ml of collagenase. Here, the concentration of collagenase was appropriately changed for each lot in view of the state of cells. The pieces were washed twice with EBSS (Earle's Balanced Salt Solution) containing 1 mM of EDTA and then shaken in MEM (Minimum Essential Medium) containing 1 mM of EDTA at 37° C. for 5 minutes. Subsequently, they were shaken in the dispase and collagenase having the same concentrations as those mentioned above for 15 minutes so as to remove the supernatant and then further shaken at 37° C. for 50 to 60 minutes at 120 to 130 cycles/minute. Then, after being washed twice with HBSS, Ham F12 containing 2% of Ultrocer G™ was used to attain the concentration of 1×10^6 cells/ml. Thus formed suspension was dispensed in each well of a 96-well plate by 200 μl. The plate was incubated in the atmosphere composed of 5% CO2 and 95% air at 37° C. for three days so as to attain a confluent state and then subjected to MTT assay.
# The sample compound was dissolved in DMSO so as to attain a concentration of 10^-2 M and then diluted with HBSS containing 2% of Ultrocer G™ so as to attain a final concentration of 10^-4 M. To each group, which 8 wells were used for, 10 μl of MTT reagent were added immediately after 100 μl of the medium in each well were exchanged for same volume of the resulting solution of the sample compound. After being incubated in an atmosphere composed of 5% CO2 and 95% air at 37° C. for 4 hours, thus formed solution was centrifuged and then its supernatant was discarded. Subsequently, 100 μl of 100% ethanol were added to the residue so as to dissolve MTT formazan. Then, the absorbance (OD: 570 to 630) was measured by a microplate reader. This method utilizes a phenomenon in which MTT is changed to MTT formazan only by mitochondria of living cells so as to change color.
# The cell damaging or cell protecting effect of the sample compound at the final concentration of 10^-4 M was expressed as cell damaging rate (%) as follows:
# cell damaging rate (%)=[1-(absorbance in sample group/absorbance in control group)]×100
# Accordingly, the smaller value is better in the cell damaging rate.
# stress ulcer formation = assay: WIS: Restraint and Water Immersion Stress-Induced Ulcer Inhibition Test; assay type: in vivo, rat (male Crj:SD or Slc:SD); settings: rat; for WIS: ulcer formation inhibitory rate: 100 mg/kg oral, 7 hours stress
# Method: WIS: Restraint and Water Immersion Stress-Induced Ulcer Inhibition Test
# The degree of inhibition of the stress ulcer formation is tested.
# Male Crj:SDor Slc:SD rats (6 to 7-week-old) were fasted overnight, but allowed free access to water. Each group has 5 to 8 of these rats. The sample compound was dissolved or suspended in an aqueous solution of 0.3% sodium carboxymethylcellulose or 0.05% Tween 80 and then was orally administered (100 mg/10 ml/kg). To a control group, the vehicle was administered. 10 minuts later, the rats were placed in a stress cage and immersed to the level of xipfoid process in a water bath (21° C.) for 7 hours. At the end of the stress, the rats were sacrificed by inhalation of ether or carbon dioxide. Then, the stomach of each was removed, inflated by injecting 10 ml of 5% formalin neutral buffer solution, and immersed in 1% formalin neutral buffer solution for 30 minutes or more to be fixed. The stomach was incised along the greater curvature and then the length of each erosion in the glandular portion was determined under dissecting microscope. The sum of the length of erosions per stomach was defined as ulcer index (UI).
# The effect obtained when 100 mg/kg of the sample compound had been administered was expressed as ulcer formation inhibitory rate (%) as follows:
# ulcer formation inhibitory rate (%)=[1-(UI in sample group/UI in control group)]×100
"PD: change in gastric mucosal potential difference, level (gastric mucosa)",Compound,"cytotoxicity at 4 h, 100 µM [1] [%]",WIS: ulcer formation inhibitory rate (stress ulcer formation) [%],anti-ulcer effect (in words) (stress ulcer formation; in vivo)
2,"CC(C)Cc1cc(C(=O)N2CCN(CCO)CC2)ccc1OCc1ccc(F)cc1 [Example 9, 1-[4-(4-fluorobenzyloxy)-3-isobutylbenzoyl]-4-(2-hydroxyethyl)piperazine]",26,88,sufficient effects
2,"Cc1cccc(COc2ccc(C(=O)N3CCN(CC(C)C)CC3)cc2CC(C)C)c1F.Cl [Example 12, 1-[4-(2-fluoro-3-methylbenzyloxy)-3-isobutylbenzoyl]-4-isobutylpiperazine hydrochloride]",-15,83,
2,"CC(C)CN1CCN(C(=O)c2ccc(OCc3ccc(F)cc3)c([N+](=O)[O-])c2)CC1.Cl [Example 8, 1-[4-(4-fluorobenzyloxy)-3-nitrobenzoyl]-4-isobutylpiperazine hydrochloride]",-65,35,

Compound,"PD: change in gastric mucosal potential difference, level (gastric mucosa)","cytotoxicity at 4 h, 100 µM [1] [%]",WIS: ulcer formation inhibitory rate (stress ulcer formation) [%],anti-ulcer effect (in words) (stress ulcer formation; in vivo)
"CC(C)Cc1cc(C(=O)N2CCN(CC(C)C)CC2)ccc1OCc1ccccc1 [Example 16, 1-(4-benzyloxy-3-isobutylbenzoyl)-4-isobutylpiperazine]",5,-98,72,
